Experimental findings from patent US20170296568A1, “SIRTUIN GENE POTENTIATOR, AND PHARMACEUTICAL PRODUCT, COSMETIC PRODUCT, AND FOOD PRODUCT USING SAME” (MORISHITA JINTAN CO., LTD., priority 2012, published 2017) are described below.

Holding throughout (assay type): cell-based, human
Assay [1] concerns sirtuin gene hSIRT1. As to the kind of experiment: Expression level of endogenous sirtuin gene hSIRT1 in Caco-2 cells (quantitative PCR, relative to β-actin). The settings on record: 10 μM, 2 days, qPCR normalised to β-actin, FIG. 2. The method, then:
Caco-2 cells were plated at 3.0×10^5 cells for a 5-mL dish. After 24 hours, each polyphenol was added to be 10 μM. Note that as a negative control, none of polyphenol nor terpenoid was added, and as a positive control, 10 μM resveratrol was added. At 2 days after this treatment, RNA was collected.
The total RNA was prepared using High Pure RNA Isolation Kit (manufactured by Roche, Indianapolis, Ind., USA). For the procedures from the total RNA preparation to the reverse transcription, the reagents and tools used were RNase-free. Cells were prepared in a sub-confluent to confluent condition in a cell culture dish (Greiner bio-one, Monroe, N.C., USA). The medium was completely removed, 200 μL of PBS, and 400 μL of cell lysis solution, which was contained in High Pure RNA Isolation Kit, were added, and the entire dish was well covered by the cell lysis solution. When the viscosity of the cell lysis solution was decreased, the cell lysis solution was collected into a 1.5-mL sample tube. The collected sample was well suspended. A filter tube and a collection tube, which were contained in High Pure RNA Isolation Kit, were assembled, and the sample was pipetted into a buffer reservoir in the upper portion of the filter tube, and was centrifuged at 8,000×g for 15 seconds. The flowthrough liquid into the collection tube was discarded, and the filter tube and the collection tube were again assembled. Then, 90 μL of DNase incubation buffer per sample was pipetted into a sterile reaction tube, and 10 μL of DNase I was added into the tube and mixed. The mixture liquid was pipetted into the buffer reservoir in the upper portion of the filter tube, was added on the glass fiber fleece in the filter tube, and was incubated at room temperature for 15 minutes. Then, 500 μL of wash buffer I, which was contained in High Pure RNA Isolation Kit, was added to the buffer reservoir in the upper portion of the filter tube, and was centrifuged at 8,000×g for 15 seconds. The flowthrough liquid into the collection tube was discarded, and the filter tube and the collection tube were again assembled. Then, 500 μL of wash buffer II was added to the buffer reservoir in the upper portion of the filter tube, and centrifugation was performed at 8,000×g for 15 seconds. The liquid discharged to the collection tube was discarded, and the filter tube and the collection tube were again assembled. Then, 200 μL of wash buffer II was added to the buffer reservoir in the upper portion of the filter tube, and centrifugation was performed at 13,000×g for 2 minutes, after which a remaining wash buffer in the filter tube was removed. The collection tube was discarded, the filter tube was inserted into a sterile reaction tube, and 50 μL of elution buffer was added in the filter tube, and centrifugation was performed at 8,000×g for 1 minute. The eluate obtained by the procedures was taken as an RNA solution. The concentration of RNA in the solution was calculated based on the light absorbance at 260 nm with a NanoDrop 2000/2000c spectrophotometer (Thermo Scientific, Waltham, Mass., USA), for use in subsequent experiments.
Then, 5 pmol of oligo(dT)20 primer was added to 1.0 μg of total RNA extracted from the cells, and sterile water was further added thereto so that the total liquid amount was 13 μL. Heat treatment was performed using a thermal cycler (Peltier Thermal Cycler PTC-200, MJ Research, Watertown, Mass., USA) at 65° C. for 5 minutes, and the resultant was immediately transferred in ice to quench it. During this treatment, the reverse transcriptase reaction program was advanced to the 42° C. stage and was temporarily stopped. A mixture solution obtained by mixing 4 μL of reverse transcriptase reaction buffer solution, 2 μL of 1 mM dNTPs (Amershan Pharmacia Biotech., Buckinghamshire, UK), and 0.5 μL of reverse transcriptase ReverTra Ace (TOYOBO, Osaka, Japan) per sample was added to and gently mixed with the sample on ice after 5 minutes. […]
On the technique in general: Real-time PCR tracks product formation cycle by cycle.

Assay [2] concerns hSIRT1 promoter. Briefly: Screening for SIRT1 enhancing polyphenol or terpenoid: hSIRT1 promoter activity (EGFP fluorescence) in Caco-2-hSIRT1p-EGFP cells. The settings on record: 10 μM, 2 days after addition, relative ratio to control (PBS), FIG. 1. The text has this: First, the promoter region (−1593 to −1 bp) of hSIRT1 (human SIRT1) was acquired using the LA-PCR method using, as a template, a human genome DNA extracted from TIG-1 cells (obtained from Institute of Development, Aging and Cancer, Tohoku University), with primers synthesized based on reported information of the hSIRT1 genomic sequence so as to synthesize primers having added AseI and NheI recognition sequences at their respective ends (hSIRT1p-AseI (SEQ ID NO: 1) and hSIRT1p-NheI (SEQ ID NO: 2)). The PCR reaction condition was at 94° C. for 1 minute, followed by at 98° C. for 20 seconds; and at 68° C. for 2 minutes, 34 cycles; and then at 72° C. for 10 minutes for extension reaction. LA-Taq from Takara Shuzo Co., Ltd. was used as the TaqDNApolymerase. The primers were synthesized by Nippon EGT based on our request.
The hSIRT1 promoter fragment obtained by the LA-PCR was subjected to TA cloning using a pGEM-T Easy vector (manufactured by Promega KK). Furthermore, the base sequence thereof was confirmed by sequencing. The hSIRT1 promoter fragment, inserted into the pGEM-T Easy vector, was cut out by digestion with the restriction enzymes AseI and NheI, and the CMV promoter of a pEGFP-C3 (manufactured by Takara Bio Inc.) was removed by digestion with AseI and NheI in a similar manner, and the hSIRT1 promoter fragment was inserted into that removed site, so that phSIRT1p-EGFP was obtained.
Transfection was performed using a LIPOFECT AMINE 2000 REAGENT (manufactured by Life Technologies) according to its protocol. On the day before the transfection, Caco-2 cells (human colonic cancer-derived cells obtained from Riken BioResource Center) were plated at 1.0×10^6 in a 10-mL dish. On the day of the transfection, phSIRT1p-EGFP (10 μg) was diluted in a serum-free OPTI-MEM medium to a volume of 750 μL, after which 15 μL of LIPOFECT AMINE Reagent was diluted in a serum-free OPTI-MEM medium to […], and they were incubated at room temperature for 5 minutes. The transfection using the LIPOFECT AMINE Reagent was performed in the absence of serum, during which the culture medium of the Caco-2 cells plated on the previous day was removed, and was replaced by 5 mL of serum-free OPTI-MEM medium. After 30 minutes of this, 1.5 mL of DNA-LIPOFECT AMINE 2000 mixture was added to each 10-mL dish. After the addition, the dish was gently shaken to mix the DNA-LIPOFECT AMINE and the OPTI-MEM. After the culture for 3 hours, the DNA-LIPOFECT AMINE mixture solution was removed, and the medium was replaced by a serum-containing culture medium. Subsequently, culture was performed under the environment at 5% CO2/95% air and 37° C. for 21 hours, and the culture medium was replaced by a new one.
Since phSIRT1p-EGFP is resistant to the drug G418, the drug G418 was added to the transfected cells to 70 μg/mL to subject them to the drug selection for a week. The culture medium was replaced by a new one every three days, and G418 was added every time at the same concentration. Accordingly, Caco-2-hSIRT1p-EGFP cells were obtained.
Caco-2-hSIRT1p-EGFP cells were plated at 0.6×10^4 cells/well in a 96-well plate. On the next day, 10 μM polyphenol or terpenoid, or control (PBS) was added to each well. At 2 days after the addition, the culture solution was aspirated, after which 100 μL of 4% paraformaldehyde was added to each well, and the plate was allowed to stand at room temperature for 10 minutes. After the plate was allowed to stand for 10 minutes, 4% paraformaldehyde was aspirated, 100 μL of Cellstain (registered trademark)-Hoechst 33342 solution (Dojindo) diluted 1/500 with PBS was added to each well, and the plate was allowed to stand at room temperature in the dark for 15 minutes and the solution was then aspirated. Then, 100 μL of PBS was added to each well, and the fluorescence intensity was measured using an IN Cell Analyzer 1000 (GE Healthcare, Amersham Place, UK). The promoter activity was represented by a relative ratio to the activity of the control.

For assay [3], the system named is hSIRT1 promoter. As to the kind of experiment: Enhancing the hSIRT1 promoter: EGFP fluorescence intensity in HaCaT-hSIRT1p-EGFP cells by flow cytometry. The settings on record: 10 μM in DMSO, 24 hours after addition, FIG. 4. The method, then: HaCaT cells (human epidermis keratinocyte-derived cell lines, provided by Dr. Takumi Miura, National Center for Child Health and Development) were cultured using a Dalbecco's Modified Eagle Medium (DMEM) medium (Nissui Pharmaceutical Co., Ltd, Tokyo) supplemented with 10% FBS, 100,000 U/L penicillin (Meiji, Tokyo), 100 mg/L streptomycin (Meiji), and 2.0 g/L NaHCO3. These cells were subcultured at 37° C. in the presence of 5% CO2.
HaCaT cell lines (HaCaT-hSIRT1p-EGFP cells) into which the vector (phSIRT1-EGFP) described in Reference Example 1 was integrated were prepared as below.
The HaCaT cells were disseminated at 9.0×10^5 in a φ60-mm dish, and were cultured in 10% FBS supplemented DMEM medium. Cells as a control were prepared in a similar manner. After 24 hours, 8 μg of phSIRT1p-EGFP was added to and mixed with 300 μL of DMEM medium, 24 μL of Hilymax (manufactured by Dojindo Laboratories), which is a transfection reagent, was further added and mixed therewith, and the mixture was incubated for 15 minutes at room temperature. Subsequently, the total amount was added to the HaCaT cells. After 3 hours, the medium was replaced by 10% FBS supplemented DMEM medium.
At 24 hours after the gene introduction, the medium was replaced by 10% FBS supplemented DMEM medium containing 750 μg/mL of G418 (Wako Pure Chemical Industries, Ltd.). After visually confirming under a microscope that all the control non-treated HaCaT cells were killed, the subculture was continued using 10% FBS supplemented DMEM containing 150 μg/mL of G418.
It was confirmed with flow cytometry that the phSIRT1p-EGFP vector was reliably transferred inro the cells after the subculture. The above-described cells and the control non-treated HaCaT cells were plated at 7.0×10^5 per a φ60-mm dish, respectively. After 24 hours, the cells were picked up and well suspended in 2 mL of 5% FBS supplemented DMEM medium, and were filtered through a Nylon Mesh (Kyoshin Rikoh Inc., Japan), and the EGFP fluorescence intensity thereof was measured with a Flow Cytometer (EPICS, BeckmanCoulter). The analysis was performed using software FlowJo (Tree Star, Ashland Oreg.), so that the EGFP fluorescence intensity of each cell was represented as a histogram.
HaCaT-hSIRT1p-EGFP cells were plated at 1.7×10^6 cells in a φ60-mm dish (as measured by flow cytometry) or at 2.0×10^4 cells/well in a 96-well plate (as measured by an IN Cell Analyzer 1000). After 24 hours, 10 μM of each polyphenol or terpenoid dissolved in DMSO (Wako Pure Chemical Industries, Ltd.) was added thereto. Note that as a negative control, the same amount of DMSO was added without polyphenol or terpenoid, and as a positive control, 10 μM resveratrol was added. At 24 hours after the addition of the various polyphenols or terpenoids or the controls, the fluorescence intensity was measured by flow cytometry.
(In general: In flow cytometry, cells or beads pass a laser one at a time.)

For the compound `CC1(C)[C@@H](O[C@H]2O[C@H](C(=O)O)[C@@H](O)[C@H](O)[C@H]2O[C@@H]2O[C@H](C(=O)O)[C@@H](O)[C@H](O)[C@H]2O)CC[C@]2(C)[C@H]3C(=O)C=C4[C@@H]5C[C@@](C)(C(=O)O)CC[C@]5(C)CC[C@@]4(C)[C@]3(C)CC[C@@H]12` [glycyrrhizin], the “relative gene expression level of hSIRT1” value in assay [1] is listed as “hSIRT1 transcription enhancing effect was observed”.

Turning to `O=C(O[C@@H]1O[C@@H]2COC(=O)c3cc(O)c(O)c(O)c3-c3c(cc(O)c(O)c3O)C(=O)O[C@H]2[C@H](OC(=O)c2cc(O)c(O)c(O)c2)[C@H]1OC(=O)c1cc(O)c(O)c(O)c1)c1cc(O)c(O)c(O)c1` [eugeniin], in assay [2], the “relative hSIRT1 promoter activity” value was “particularly strong hSIRT1 promoter enhancing activity”. Besides, the “relative gene expression level of hSIRT1” value in assay [1] was “hSIRT1 transcription enhancing effect was observed”.

On to `C[C@@]12CCc3occc3[C@H]1CC[C@@]13C[C@@H](CC[C@H]12)[C@@](O)(CO)C3` [cafestol], for which the “relative hSIRT1 promoter activity” value in assay [2] is “particularly strong hSIRT1 promoter enhancing activity”. Moreover, the “relative gene expression level of hSIRT1” value in assay [1] is listed as “hSIRT1 transcription enhancing effect was observed”.

For `O=C(O[C@H]1[C@@H]2OC(=O)c3cc(O)c(O)c(O)c3-c3c(cc(O)c(O)c3O)C(=O)OC[C@H]2OC(O)[C@@H]1OC(=O)c1cc(O)c(O)c(O)c1)c1cc(O)c(O)c(O)c1` (stereo partly shown) [tellimagrandin I], the “relative hSIRT1 promoter activity” value in assay [2] is recorded as “particularly strong hSIRT1 promoter enhancing activity”. In addition, in assay [3], the “EGFP fluorescence intensity (hSIRT1 promoter activity)” value is on record as “hSIRT1 expression effect on skin epidermis cells was seen”.
